From patent publication US10696693B2, “Fused imidazole derivatives as TGF-beta inhibitors” (Rigel Pharmaceuticals, Inc., priority 2014, dated 2020)
Where two headings read alike, the source gives them in different places.

Tests used:
[1] = test system: TGF-β; test: AlphaScreen SureFire p-SMAD3 (Ser423/425) assay, TGF-β-stimulated cells; type: cell-based
Procedure, shortened: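 The p-SMAD-3 (Ser423/425) SureFire assay measured phosphorylation of endogenous SMAD-3 in cell lysates. Cells were plated overnight in collagen-coated plates, exposed to three-fold serially diluted compounds for about 10 minutes, then stimulated with TGFβ. Lysates (5 μL) received acceptor bead mix for 2 hours, then donor beads for 1½ hours before AlphaScreen reading.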

[2] = test system: GDF8; test: AlphaScreen SureFire p-SMAD3 (Ser423/425) assay, GDF8-stimulated cells; type: cell-based
Procedure, shortened: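 Lysate (5 μL) went into 384-well shallow plates with 5 μL of Reaction Buffer, Activation Buffer and AlphaScreen Acceptor bead mix. Plates were sealed, kept dark and shaken for 2 hours at room temperature. Donor beads in dilution buffer (2 μL) were added for another 1½ hours, and p-SMAD3 signal was read on a Synergy-4 or Enspire reader.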

[3] = Mus musculus, p-SMAD3 (Ser423/425) AlphaScreen in cell lysate, MPC-11, TGF-β stimulation, read-out: TGF-β: inhibition of TGF-β signaling, TGF-β pSMAD (MPC-11)
[4] = Mus musculus, MPC-11, p-SMAD3 (Ser423/425) AlphaScreen in cell lysate, MPC11, GDF8 stimulation, read-out: GDF8: inhibition of GDF8 signaling, GDF pSMAD (MPC11)
[5] = Mus musculus, MPC-11, read-out: TGF-β: inhibition of TGF-β signaling, TGF-β pSMAD (MPC-11), p-SMAD3 (Ser423/425) AlphaScreen in cell lysate, TGF-β stimulation
[6] = Mus musculus, MPC-11, read-out: GDF8: inhibition of GDF8 signaling, GDF pSMAD (MPC11), p-SMAD3 (Ser423/425) AlphaScreen in cell lysate, GDF8 stimulation

Structure (SMILES) | IC50 [1, 3] [nM] | IC50 [2, 4] [nM] | other results
Fc1ccccc1-c1nc2n(c1-c1cc3cnccc3s1)CCC2 [Compound 100, 2-(2-(2-fluorophenyl)-6,7-dihydro-5H-pyrrolo[1,2-a]imidazol-3-yl)thieno[3,2-c]pyridine] | > 1000 | 100 to 1000 | 
Fc1ccc(-c2nc3occn3c2-c2ccc3nccn3c2)c(F)c1 [Compound 159, 6-(2,4-difluorophenyl)-5-(imidazo[1,2-a]pyridin-6-yl)imidazo[2,1-b]oxazole] | 50 to 100 | < 50 | 
Cc1cc(F)c(Cl)cc1-c1nc2n(c1-c1ccc3nccn3c1)CCC2 [Compound 57, 6-(2-(5-chloro-4-fluoro-2-methylphenyl)-6,7-dihydro-5H-pyrrolo[1,2-a]imidazol-3-yl)imidazo[1,2-a]pyridine] | 100 to 1000 | 100 to 1000 | 
Cc1c(F)ccc(-c2nc3n(c2-c2ccc4nccnc4c2)CCC3)c1Cl [Compound 314, 6-(2-(2-chloro-4-fluoro-3-methylphenyl)-6,7-dihydro-5H-pyrrolo[1,2-a]imidazol-3-yl)quinoxaline] | > 1000 | > 1000 | 
NC(=O)C1CCC2(CC1)Cc1nc(-c3ccc(F)cc3)c(-c3ccc4ncnn4c3)n1C2 (stereo not shown) [Compound 80, 3′-([1,2,4]triazolo[1,5-a]pyridin-6-yl)-2′-(4-fluorophenyl)-5′H,7′H-spiro[cyclohexane-1,6′-pyrrolo[1,2-a]imidazole]-4-carboxamide] |  |  | IC50 [1, 5]: > 1000 nM; IC50 [2, 6]: > 1000 nM
FC(F)(F)c1cccc(-c2nc3n(c2-c2ccc4nccnc4c2)CCC3)c1 [Compound 184, 6-(2-(3-(trifluoromethyl)phenyl)-6,7-dihydro-5H-pyrrolo[1,2-a]imidazol-3-yl)quinoxaline] | 100 to 1000 | 50 to 100 | 
Fc1ccc(-c2nc3occn3c2-c2ccc3ncsc3c2)cc1F [Compound 135, 5-(benzo[d]thiazol-6-yl)-6-(3,4-difluorophenyl)imidazo[2,1-b]oxazole] | 50 to 100 | < 50 | 
Cc1cccc(-c2nc3occn3c2-c2ccc3nccnc3c2)c1 [Compound 142, 5-(quinoxalin-6-yl)-6-(m-tolyl)imidazo[2,1-b]oxazole] | < 50 | < 50 | 
Fc1cc(F)c(F)c(-c2nc3n(c2-c2ccc4nccnc4c2)CCN3)c1 [Compound 111, 6-(6-(2,3,5-trifluorophenyl)-2,3-dihydro-1H-imidazo[1,2-a]imidazol-5-yl)quinoxaline] | < 50 | < 50 | 
Cc1cc(-c2nc3n(c2-c2ccc4cn[nH]c4c2)CCC3)c(F)cc1Cl [Compound 252, 6-(2-(4-chloro-2-fluoro-5-methylphenyl)-6,7-dihydro-5H-pyrrolo[1,2-a]imidazol-3-yl)-1H-indazole] | > 1000 | > 1000 | 
Cc1cc(F)c(Cl)cc1-c1nc2n(c1-c1ccc3ncsc3c1)CCC2 [Compound 297, 6-(2-(5-chloro-4-fluoro-2-methylphenyl)-6,7-dihydro-5H-pyrrolo[1,2-a]imidazol-3-yl)benzo[d]thiazole] | 100 to 1000 | 100 to 1000 | 
Clc1ccc(Cl)c(-c2nc3n(c2-c2ccc4ncccc4c2)CCC3)c1 [Compound 343, 6-(2-(2,5-dichlorophenyl)-6,7-dihydro-5H-pyrrolo[1,2-a]imidazol-3-yl)quinoline] |  |  | IC50 [1, 5]: 100 to 1000 nM; IC50 [2, 6]: 100 to 1000 nM
COCCOc1cnc2ccc(-c3c(-c4cc(F)cc(F)c4F)nc4n3CCN4)cc2n1 [Compound 117, 2-(2-methoxyethoxy)-7-(2-(2,3,5-trifluorophenyl)-5,6-dihydro-7λ^2-imidazo[3,2-a]imidazol-3-yl)quinoxaline] |  |  | IC50 [1, 5]: > 1000 nM; IC50 [2, 6]: 100 to 1000 nM
Cc1cc(-c2nc3n(c2-c2ccc4nccn4c2)CCC3)cc(Cl)c1F [Compound 41, 6-(2-(3-chloro-4-fluoro-5-methylphenyl)-6,7-dihydro-5H-pyrrolo[1,2-c]imidazol-3-yl)imidazo[1,2-c]pyridine] | > 1000 | > 1000 | 
Fc1ccc(-c2nc3occn3c2-c2ccc3[nH]ncc3c2)c(F)c1F [Compound 160, 6-(2,3,4-trifluorophenyl)-5-(1H-indazol-5-yl)imidazo[2,1-b]oxazole] | 100 to 1000 | 50 to 100 | 
Fc1cc(F)c(-c2nc3occn3c2-c2ccc3nccnc3c2)cc1F [Compound 149, 5-(quinoxalin-6-yl)-6-(2,4,5-trifluorophenyl)imidazo[2,1-b]oxazole] | 50 to 100 | < 50 | 

Structure (SMILES) | IC50 [1, 3] [nM] | IC50 [2, 4] [nM] | other results
Fc1cc(F)c(-c2nc3occn3c2-c2ccc3nccn3c2)cc1F [Compound 148, 6-(2,4,5-trifluorophenyl)-5-(imidazo[1,2-a]pyridin-6-yl)imidazo[2,1-b]oxazole] | 50 to 100 | < 50 | 
Cc1cc(F)c(-c2nc3n(c2-c2ccc4ncnn4c2)CCC3)cc1F [Compound 47, 6-(2-(2,5-difluoro-4-methylphenyl)-6,7-dihydro-5H-pyrrolo[1,2-a]imidazol-3-yl)-[1,2,4]triazolo[1,5-a]pyridine] | > 1000 | > 1000 | 
Fc1cc(F)cc(-c2nc3n(c2-c2ccc4[nH]ncc4c2)CCC3)c1 [Compound 230, 5-(2-(3,5-difluorophenyl)-6,7-dihydro-5H-pyrrolo[1,2-a]imidazol-3-yl)-1H-indazole] |  |  | IC50 [1, 5]: > 1000 nM; IC50 [2, 6]: 100 to 1000 nM
OCC1CCC2(CC1)Cc1nc(-c3ccc(F)cc3)c(-c3ccc4nccnc4c3)n1C2 (stereo not shown) [Compound 336, (2′-(4-fluorophenyl)-3′-(quinoxalin-6-yl)-5′H,7′H-spiro[cyclohexane-1,6′-pyrrolo[1,2-a]imidazol]-4-yl)methanol] |  |  | IC50 [1, 5]: > 1000 nM; IC50 [2, 6]: > 1000 nM
Cc1c(F)ccc(-c2nc3n(c2-c2ccc4ncsc4c2)CCC3)c1F [Compound 281, 6-(2-(2,4-difluoro-3-methylphenyl)-6,7-dihydro-5H-pyrrolo[1,2-a]imidazol-3-yl)benzo[d]thiazol] | 100 to 1000 | 50 to 100 | 
Cc1ccccc1-c1nc2n(c1-c1ccc3nccn3c1)CCC2 [Compound 63, 6-(2-(2-methylphenyl)-6,7-dihydro-5H-pyrrolo[1,2-a]imidazol-3-yl)imidazo[1,2-a]pyridine] | > 1000 | > 1000 | 
O=C(O)C1CCC2(CC1)Cc1nc(-c3ccc(F)cc3)c(-c3ccc4ncsc4c3)n1C2 (stereo not shown) [Compound 332, 3′-(benzo[d]thiazol-6-yl)-2′-(4-fluorophenyl)-5′H,7′H-spiro[cyclohexane-1,6′-pyrrolo[1,2-a]imidazole]-4-carboxylic acid] |  |  | IC50 [1, 5]: > 1000 nM; IC50 [2, 6]: 100 to 1000 nM
Fc1ccc(-c2nc3occn3c2-c2ccc3[nH]ncc3c2)c(F)c1 [Compound 154, 6-(2,4-difluorophenyl)-5-(1H-indazol-5-yl)imidazo[2,1-b]oxazole] | 100 to 1000 | < 50 | 
Clc1cccc(-c2nc3n(c2-c2ccc4cn[nH]c4c2)CCC3)c1 [Compound 190, 6-(2-(3-chlorophenyl)-6,7-dihydro-5H-pyrrolo[1,2-a]imidazol-3-yl)-1H-indazole] |  |  | IC50 [1, 5]: 50 to 100 nM; IC50 [2, 6]: < 50 nM
Cc1cccc(-c2nc3occn3c2I)c1 [Compound 138, 5-iodo-6-(m-tolyl)imidazo[2,1-b]oxazole] | > 1000 | > 1000 | 
CC(C)c1nnc2ccc(-c3c(-c4cc(F)c(Cl)cc4F)nc4n3CCC4)cn12 [Compound 20, 6-(2-(4-chloro-2,5-difluorophenyl)-6,7-dihydro-5H-pyrrolo[1,2-a]imidazol-3-yl)-3-isopropyl-[1,2,4]triazolo[4,3-a]pyridine] | > 1000 | > 1000 | 
Cc1cc(-c2nc3n(c2-c2ccc4ncsc4c2)CCC3)c(Cl)cc1F [Compound 323, 6-(2-(2-chloro-4-fluoro-5-methylphenyl)-6,7-dihydro-5H-pyrrolo[1,2-a]imidazol-3-yl)benzo[d]thiazole] |  |  | IC50 ([1]; read-out: TGF-β: inhibition of TGF-β signaling, TGF-β pSMAD (MPC-11), p-SMAD3 (Ser423/425) AlphaScreen in cell lysate, TGF-β stimulation): > 1000 nM; IC50 ([2]; read-out: GDF8: inhibition of GDF8 signaling, GDF pSMAD (MPC11), p-SMAD3 (Ser423/425) AlphaScreen in cell lysate, GDF8 stimulation): > 1000 nM
FC(F)(F)c1cccc(-c2nc3n(c2-c2ccc4[nH]ncc4c2)CCC3)c1 [Compound 181, 5-(2-(3-(trifluoromethyl)phenyl)-6,7-dihydro-5H-pyrrolo[1,2-a]imidazol-3-yl)-1H-indazole] | 100 to 1000 | 50 to 100 | 
Cc1ccc(-c2nc3n(c2-c2ccc4ncccc4c2)CCC3)c(F)c1F [Compound 251, 6-(2-(2,3-difluoro-4-methylphenyl)-6,7-dihydro-5H-pyrrolo[1,2-a]imidazol-3-yl)quinoline] | > 1000 | > 1000 | 
Fc1ccc(-c2nc3n(c2-c2ccc4ncnn4c2)CCC3)c(F)c1F [Compound 15, 6-(2-(2,3,4-trifluorophenyl)-6,7-dihydro-5H-pyrrolo[1,2-a]imidazol-3-yl)-[1,2,4]triazolo[1,5-a]pyridine] | > 1000 | 100 to 1000 | 
Fc1cc(-c2nc3n(c2-c2ccc4nccnc4c2)CCC3)cc(F)c1F [Compound 227, 6-(2-(3,4,5-trifluorophenyl)-6,7-dihydro-5H-pyrrolo[1,2-a]imidazol-3-yl)quinoxaline] | > 1000 | 100 to 1000 | 
